Data as given in ChEMBL document CHEMBL5365467 (J Med Chem, 2023).
One block for each compound: values may come before it.

Columns and labels:
[1] = Clearance in Sprague-Dawley rat at 2 mg/kg, iv measured upto 24 hrs by LC-MS/MS analysis; settings: in vivo
in vivo [2] = settings: Sprague-Dawley, rat, po, 5 mg/kg
in vivo [3] = settings: Sprague-Dawley, rat, iv, 2 mg/kg
in vivo [4] = settings: Sprague-Dawley, rat, po, 5 mg/kg; remark: listed apart in the source
VCaP = assay: Growth inhibition in human VCaP cells
in vivo [5] = settings: Sprague-Dawley, rat, po, 5 mg/kg; remark: listed apart in the source
[6] = target: Protein cereblon/Androgen receptor (Homo sapiens, UniProt P10275+Q96SW2, T878A); assay: PROTAC activity at AR T878A mutant/CRBN in human LNCaP cells assessed as induction of androgen receptor degradation measured at 24 hrs by Western blot analysis; format: cell-based
[7] = Half life in Sprague-Dawley rat at 2 mg/kg, iv measured upto 24 hrs by LC-MS/MS analysis; settings: in vivo
[8] = target: Protein cereblon/Androgen receptor (Homo sapiens, UniProt P10275+Q96SW2); assay: PROTAC activity at AR/CRBN in AR-positive human VCaP cells assessed as induction of androgen receptor degradation measured at 24 hrs; format: cell-based; settings: read-out: DC50
[9] = Volume of distribution at steady state in Sprague-Dawley rat at 2 mg/kg, iv measured upto 24 hrs by LC-MS/MS analysis; settings: in vivo
[10] = Half life in Sprague-Dawley rat at 5 mg/kg, po measured upto 24 hrs by LC-MS/MS analysis; settings: in vivo
Protein cereblon = Protein cereblon (Homo sapiens, UniProt Q96SW2); assay: Binding affinity to CRBN (unknown origin) assessed as inhibition constant
Androgen receptor = target: T1, Androgen receptor (Homo sapiens, UniProt P10275)
T1 sequence (P10275 whole entry): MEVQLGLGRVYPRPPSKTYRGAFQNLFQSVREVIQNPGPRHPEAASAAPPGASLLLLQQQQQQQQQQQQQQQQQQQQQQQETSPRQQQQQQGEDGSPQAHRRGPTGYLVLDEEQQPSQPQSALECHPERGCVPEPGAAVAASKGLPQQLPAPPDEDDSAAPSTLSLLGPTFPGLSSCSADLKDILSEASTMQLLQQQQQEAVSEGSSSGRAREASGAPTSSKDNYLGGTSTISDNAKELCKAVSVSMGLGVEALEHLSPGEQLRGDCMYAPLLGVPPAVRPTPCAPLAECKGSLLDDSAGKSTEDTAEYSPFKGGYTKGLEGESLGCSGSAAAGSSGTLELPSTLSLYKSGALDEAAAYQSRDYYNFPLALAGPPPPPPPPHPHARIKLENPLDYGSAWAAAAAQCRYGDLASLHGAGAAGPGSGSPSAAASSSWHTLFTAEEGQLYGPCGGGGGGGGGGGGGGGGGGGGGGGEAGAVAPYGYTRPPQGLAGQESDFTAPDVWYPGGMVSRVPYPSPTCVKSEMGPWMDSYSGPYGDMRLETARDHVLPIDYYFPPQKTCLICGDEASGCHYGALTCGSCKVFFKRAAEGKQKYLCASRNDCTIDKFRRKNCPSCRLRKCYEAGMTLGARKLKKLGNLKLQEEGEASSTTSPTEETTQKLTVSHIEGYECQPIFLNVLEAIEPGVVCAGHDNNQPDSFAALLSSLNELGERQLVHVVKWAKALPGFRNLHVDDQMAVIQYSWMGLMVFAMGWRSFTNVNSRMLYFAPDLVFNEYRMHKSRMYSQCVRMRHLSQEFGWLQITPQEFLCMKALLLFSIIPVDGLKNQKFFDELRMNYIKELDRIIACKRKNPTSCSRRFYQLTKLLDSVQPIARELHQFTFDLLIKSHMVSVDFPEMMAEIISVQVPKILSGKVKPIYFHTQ

[11] = Volume of distribution at steady state in Sprague-Dawley rat at 1 mg/kg, iv measured upto 24 hrs by LC-MS/MS analysis; format: ADME, organism-based; settings: in vivo, read-out: Vdss
[12] = AUC (0 to t) in Sprague-Dawley rat at 1 mg/kg, iv measured upto 24 hrs by LC-MS/MS analysis; format: ADME, organism-based; set-up: dose 1 mg/kg, time < 24 hrs, route iv; settings: in vivo
[13] = Clearance in Sprague-Dawley rat at 1 mg/kg, iv measured upto 24 hrs by LC-MS/MS analysis; format: ADME, organism-based; settings: in vivo
[14] = AUC (0 to t) in Sprague-Dawley rat at 3 mg/kg, po measured upto 24 hrs by LC-MS/MS analysis; format: ADME, organism-based; set-up: dose 3 mg/kg, time < 24 hrs, route po; settings: in vivo
[15] = Cmax in Sprague-Dawley rat at 3 mg/kg, po measured upto 24 hrs by LC-MS/MS analysis; format: ADME, organism-based; set-up: dose 3 mg/kg, time < 24 hrs, route po; settings: in vivo
[16] = Half life in Sprague-Dawley rat at 3 mg/kg, po measured upto 24 hrs by LC-MS/MS analysis; format: ADME, organism-based; settings: in vivo
[17] = Oral bioavailability in Sprague-Dawley rat at 3 mg/kg measured upto 24 hrs by LC-MS/MS analysis; format: ADME, organism-based; settings: in vivo
[18] = Half life in Sprague-Dawley rat at 1 mg/kg, iv measured upto 24 hrs by LC-MS/MS analysis; format: ADME, organism-based; settings: in vivo

Chain of Protein cereblon/Androgen receptor (Homo sapiens, UniProt P10275+Q96SW2) (Q96SW2 whole entry, one chain of several): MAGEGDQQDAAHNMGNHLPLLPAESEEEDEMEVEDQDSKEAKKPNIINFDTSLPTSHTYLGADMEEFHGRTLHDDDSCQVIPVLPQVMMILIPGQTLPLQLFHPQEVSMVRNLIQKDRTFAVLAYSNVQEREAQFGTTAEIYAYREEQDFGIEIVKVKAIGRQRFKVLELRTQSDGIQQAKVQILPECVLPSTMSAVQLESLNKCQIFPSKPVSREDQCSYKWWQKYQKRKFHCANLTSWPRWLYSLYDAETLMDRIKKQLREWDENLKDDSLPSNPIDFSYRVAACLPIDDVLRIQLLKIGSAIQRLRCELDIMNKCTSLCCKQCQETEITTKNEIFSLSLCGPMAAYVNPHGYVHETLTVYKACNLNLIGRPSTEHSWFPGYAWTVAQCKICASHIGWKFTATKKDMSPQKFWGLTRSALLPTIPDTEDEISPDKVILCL
Chain of Protein cereblon (Q96SW2 whole entry): as the sequence (Q96SW2 whole entry, one chain of several) above

SMILES: C[C@H]1CC2(CCN(c3ccc(C(=O)N4CCC(N5Cc6cc7c(cc6C5)C(=O)N(C5CCC(=O)NC5=O)C7=O)CC4)cc3)CC2)CN1c1ccc(C#N)c(Cl)c1 (stereo partly specified)
clearance at 24 h [1]: 0.92 L/h/kg | Cmax at 24 h (in vivo [2]): 0.41 µg/mL | AUC(0-t) at 24 h (in vivo [3]): 2.1 µg·h/mL | AUC(0-t) at 24 h (in vivo [4]): 4.28 µg·h/mL | IC50 (VCaP): 0.0165 µM | bioavailability at 24 h (in vivo [5]): 81% | DC50 [6]: 0.0008 µM | half-life at 24 h [7]: 5.5 h | DC50 [8]: 0.0004 µM | Vd at 24 h [9]: 6.1 L/kg | half-life at 24 h [10]: 5.5 h

Ki (Protein cereblon): 6 µM
SMILES: CN1CCc2cc3c(cc2C1)C(=O)N(C1CCC(=O)NC1=O)C3=O (stereo unspecified)

SMILES: C[C@H]1CC2(CCN(c3ccc(C(=O)N4CCC(CN5Cc6cc7c(cc6C5)C(=O)N(C5CCC(=O)NC5=O)C7=O)CC4)nc3)CC2)CN1c1ccc(C#N)c(Cl)c1 (stereo partly specified)
IC50 (VCaP): 0.046 µM | DC50 [6]: 0.0046 µM | DC50 [8]: 0.0156 µM

IC50 (Androgen receptor): 5 µM
SMILES: CN1CCN(c2ccc(C(=O)N3CCC4(CCN(c5ccc(C#N)c(Cl)c5)CC4)C3)cc2)CC1

SMILES: C[C@H]1CC2(CCN(c3ccc(C(=O)N4CCC(F)(CN5Cc6cc7c(cc6C5)C(=O)N(C5CCC(=O)NC5=O)C7=O)CC4)cc3)CC2)CN1c1ccc(C#N)c(Cl)c1 (stereo partly specified)
clearance at 24 h [1]: 0.47 L/h/kg | Cmax at 24 h (in vivo [2]): 0.216 µg/mL | AUC(0-t) at 24 h (in vivo [3]): 4 µg·h/mL | AUC(0-t) at 24 h (in vivo [4]): 1.82 µg·h/mL | IC50 (VCaP): 0.018 µM | bioavailability at 24 h (in vivo [5]): 18% | DC50 [6]: 0.0037 µM | half-life at 24 h [7]: 7.9 h | DC50 [8]: 0.0009 µM | Vd at 24 h [9]: 4.2 L/kg | half-life at 24 h [10]: 5.2 h

SMILES: CN1CCN(c2ccc(C(=O)N3CCC4(CC3)CCN(c3ccc(C#N)c(Cl)c3)C4)cc2)CC1
IC50 (Androgen receptor): 3.6 µM

SMILES: C[C@H]1CC2(CCN(c3cnc(C(=O)N4CCC(CN5Cc6cc7c(cc6C5)C(=O)N(C5CCC(=O)NC5=O)C7=O)CC4)cn3)CC2)CN1c1ccc(C#N)c(Cl)c1 (stereo partly specified)
Vd [11]: 2.3 L/kg | AUC(0-t) at 24 h [12]: 0.495 µg·h/mL | IC50 (VCaP): 0.01 µM | clearance [13]: 2 L/h/kg | AUC(0-t) at 24 h [14]: 0.235 µg·h/mL | Cmax [15]: 0.055 µg/mL | half-life [16]: 1.2 h | bioavailability [17]: 15% | half-life [18]: 1.4 h

SMILES: C[C@@H]1CC2(CCN(c3ccc(C(=O)N4CCC(CN5Cc6cc7c(cc6C5)C(=O)N(C5CCC(=O)NC5=O)C7=O)CC4)cc3)CC2)CN1c1ccc(C#N)c(Cl)c1 (stereo partly specified)
DC50 [8]: 0.385 µM

Ki (Protein cereblon): 7.3 µM
SMILES: CN1CCc2cc3c(cc2CC1)C(=O)N(C1CCC(=O)NC1=O)C3=O (stereo unspecified)

IC50 (Androgen receptor): 6.9 µM
SMILES: CN1CCN(c2ccc(C(=O)N3CCC4(CCN(c5ccc(C#N)c(Cl)c5)C4)C3)cc2)CC1 (stereo unspecified)

SMILES: CN1CCN(c2ccc(C(=O)N[C@H]3CC[C@H](N(C)c4ccc(C#N)c(Cl)c4)CC3)cc2)CC1
IC50 (Androgen receptor): 0.015 µM

SMILES: N#Cc1ccc(N2CCC3(CCN(c4ccc(C(=O)N5CCC(CN6Cc7cc8c(cc7C6)C(=O)N(C6CCC(=O)NC6=O)C8=O)CC5)cc4)CC3)C2)cc1Cl (stereo unspecified)
DC50 [8]: 0.0057 µM

DC50 [8]: 0.29 µM
SMILES: C[C@H]1CC2(CCN(c3ccc(C(=O)N4CCC(O)(CN5Cc6cc7c(cc6C5)C(=O)N(C5CCC(=O)NC5=O)C7=O)CC4)cc3)CC2)CN1c1ccc(C#N)c(Cl)c1 (stereo partly specified)

IC50 (Androgen receptor): > 10 µM
SMILES: CN1CCN(c2ccc(C(=O)N3CCC4(CC3)CN(c3ccc(C#N)c(Cl)c3)C4)cc2)CC1

SMILES: COC1(CN2Cc3cc4c(cc3C2)C(=O)N(C2CCC(=O)NC2=O)C4=O)CCN(C(=O)c2ccc(N3CCC4(CC3)C[C@H](C)N(c3ccc(C#N)c(Cl)c3)C4)cc2)CC1 (stereo partly specified)
clearance at 24 h [1]: 0.83 L/h/kg | Cmax at 24 h (in vivo [2]): 0.179 µg/mL | AUC(0-t) at 24 h (in vivo [3]): 2.39 µg·h/mL | AUC(0-t) at 24 h (in vivo [4]): 1.32 µg·h/mL | IC50 (VCaP): 0.0049 µM | bioavailability at 24 h (in vivo [5]): 22% | DC50 [6]: 0.001 µM | half-life at 24 h [7]: 4.9 h | DC50 [8]: 0.0003 µM | Vd at 24 h [9]: 4.1 L/kg | half-life at 24 h [10]: 5.6 h

SMILES: N#Cc1ccc(N2CCC3(CCN(c4ccc(C(=O)N5CCC(CN6CCc7cc8c(cc7C6)C(=O)N(C6CCC(=O)NC6=O)C8=O)CC5)cc4)CC3)C2)cc1Cl (stereo unspecified)
DC50 [8]: 0.025 µM
